According to ChEMBL document CHEMBL1201861, “Genomics of Drug Sensitity in Cancer screening data, Wellcome Trust Sanger Institute”:

Columns and labels:
Test in all cases: cells
COLO-824 = format: functional, cell-based, Homo sapiens; settings: Homo sapiens, COLO-824
Description: SANGER: Inhibition of human COLO-824 cell growth in a cell viability assay.

COR-L88 = format: functional, cell-based, Homo sapiens; settings: Homo sapiens, COR-L88;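 also: growth inhibition of COR-L88 cells, read out with a cell viability assay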
Description: SANGER: Inhibition of human COR-L88 cell growth in a cell viability assay.

CTB-1 = format: functional, cell-based, Homo sapiens; settings: Homo sapiens, CTB-1
Description: SANGER: Inhibition of human CTB-1 cell growth in a cell viability assay.

D-392MG = format: functional, cell-based, Homo sapiens; settings: Homo sapiens, D-392MG
DMS-114 = format: functional, cell-based, Homo sapiens; settings: Homo sapiens, DMS-114
EW-11 = format: functional, cell-based, Homo sapiens; settings: Homo sapiens, EW-11;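 also: growth inhibition of human EW-11 cells, measured with a cell viability assay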
Description: SANGER: Inhibition of human EW-11 cell growth in a cell viability assay.

HCC2157 = format: functional, cell-based, Homo sapiens; settings: Homo sapiens, HCC2157;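 also: growth inhibition of the cancer cell line, read out as cell viability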
Description: SANGER: Inhibition of human HCC2157 cell growth in a cell viability assay.

IST-MES1 = format: functional, cell-based, Homo sapiens; settings: Homo sapiens, IST-MES1;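 also: growth inhibition of IST-MES1 cells, measured with a cell viability assay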
Description: SANGER: Inhibition of human IST-MES1 cell growth in a cell viability assay.

KARPAS-299 = format: functional, cell-based, Homo sapiens; settings: Homo sapiens, KARPAS-299
Description: SANGER: Inhibition of human KARPAS-299 cell growth in a cell viability assay.

KARPAS-45 = format: functional, cell-based, Homo sapiens; settings: Homo sapiens, KARPAS-45;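 also: inhibition of cell line growth, read out through a viability assay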
Description: SANGER: Inhibition of human KARPAS-45 cell growth in a cell viability assay.

LAMA-84 = format: functional, cell-based, Homo sapiens; settings: Homo sapiens, LAMA-84;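 also: growth inhibition of LAMA-84 cells, read out with a cell viability assay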
Description: SANGER: Inhibition of human LAMA-84 cell growth in a cell viability assay.

MEG-01 = format: functional, cell-based, Homo sapiens; settings: Homo sapiens, MEG-01;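 also: growth inhibition of MEG-01 cells, read out by a cell viability assay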
Description: SANGER: Inhibition of human MEG-01 cell growth in a cell viability assay.

MHH-NB-11 = format: functional, cell-based, Homo sapiens; settings: Homo sapiens, MHH-NB-11;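 also: growth inhibition of human MHH-NB-11 cells, read out by a cell viability assay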
Description: SANGER: Inhibition of human MHH-NB-11 cell growth in a cell viability assay.

MN-60 = format: functional, cell-based, Homo sapiens; settings: Homo sapiens, MN-60;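 also: growth inhibition of the MN-60 cell line, determined with a cell viability assay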
Description: SANGER: Inhibition of human MN-60 cell growth in a cell viability assay.

MPP-89 = format: functional, cell-based, Homo sapiens; settings: Homo sapiens, MPP-89;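 also: growth inhibition of human MPP-89 cells, read out with a cell viability assay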
Description: SANGER: Inhibition of human MPP-89 cell growth in a cell viability assay.

MSTO-211H = format: functional, cell-based, Homo sapiens; settings: Homo sapiens, MSTO-211H
Description: SANGER: Inhibition of human MSTO-211H cell growth in a cell viability assay.

MZ1-PC = format: functional, cell-based, Homo sapiens; settings: Homo sapiens, MZ1-PC;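 also: cell viability assay measuring growth inhibition of human MZ1-PC cells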
Description: SANGER: Inhibition of human MZ1-PC cell growth in a cell viability assay.

NCI-H1355 = format: functional, cell-based, Homo sapiens; settings: Homo sapiens, NCI-H1355;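 also: growth inhibition of human NCI-H1355 cells, read out by a cell viability assay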
Description: SANGER: Inhibition of human NCI-H1355 cell growth in a cell viability assay.

NCI-H1395 = format: functional, cell-based, Homo sapiens; settings: Homo sapiens, NCI-H1395;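 also: cell viability assay read-out quantifying reduced proliferation of human NCI-H1395 cells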
Description: SANGER: Inhibition of human NCI-H1395 cell growth in a cell viability assay.

NCI-H2126 = format: functional, cell-based, Homo sapiens; settings: Homo sapiens, NCI-H2126;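 also: growth inhibition of the cancer cell line, determined with a cell viability readout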
Description: SANGER: Inhibition of human NCI-H2126 cell growth in a cell viability assay.

NCI-H747 = format: functional, cell-based, Homo sapiens; settings: Homo sapiens, NCI-H747;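 also: growth inhibition of human NCI-H747 cells, read out by a cell viability assay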
Description: SANGER: Inhibition of human NCI-H747 cell growth in a cell viability assay.

NCI-N87 = format: functional, cell-based, Homo sapiens; settings: Homo sapiens, NCI-N87;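 also: growth inhibition of human NCI-N87 cells, read out with a cell viability assay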
Description: SANGER: Inhibition of human NCI-N87 cell growth in a cell viability assay.

NH-12 = format: functional, cell-based, Homo sapiens; settings: Homo sapiens, NH-12;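 also: growth inhibition of NH-12 cells, read out with a cell viability assay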
Description: SANGER: Inhibition of human NH-12 cell growth in a cell viability assay.

NOMO-1 = format: functional, cell-based, Homo sapiens; settings: Homo sapiens, NOMO-1;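 also: growth inhibition of human NOMO-1 cells measured by a cell viability assay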
Description: SANGER: Inhibition of human NOMO-1 cell growth in a cell viability assay.

OS-RC-2 = format: functional, cell-based, Homo sapiens; settings: Homo sapiens, OS-RC-2;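 also: growth inhibition of human OS-RC-2 cells, measured by a cell viability assay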
Description: SANGER: Inhibition of human OS-RC-2 cell growth in a cell viability assay.

P30-OHK = format: functional, cell-based, Homo sapiens; settings: Homo sapiens, P30-OHK;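 also: growth inhibition of the P30-OHK cell line, read out with a cell viability assay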
Description: SANGER: Inhibition of human P30-OHK cell growth in a cell viability assay.

QIMR-WIL = format: functional, cell-based, Homo sapiens; settings: Homo sapiens, QIMR-WIL;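 also: growth inhibition of QIMR-WIL cells, read out with a cell viability assay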
Description: SANGER: Inhibition of human QIMR-WIL cell growth in a cell viability assay.

RS4-11 = format: functional, cell-based, Homo sapiens; settings: Homo sapiens, RS4-11;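 also: growth inhibition of RS4-11 cells, read out by a cell viability assay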
Description: SANGER: Inhibition of human RS4-11 cell growth in a cell viability assay.

SBC-1 = format: functional, cell-based, Homo sapiens; settings: Homo sapiens, SBC-1;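 also: cell viability assay measuring growth inhibition of the SBC-1 cell line, IC50 being the concentration that halves growth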
Description: SANGER: Inhibition of human SBC-1 cell growth in a cell viability assay.

SK-MEL-1 = format: functional, cell-based, Homo sapiens; settings: Homo sapiens, SK-MEL-1;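 also: growth inhibition of human SK-MEL-1 cells, read out by a cell viability assay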
Description: SANGER: Inhibition of human SK-MEL-1 cell growth in a cell viability assay.

SK-N-FI = format: functional, cell-based, Homo sapiens; settings: Homo sapiens, SK-N-FI;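 also: cell viability assay measuring growth inhibition of human SK-N-FI cells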
Description: SANGER: Inhibition of human SK-N-FI cell growth in a cell viability assay.

SK-PN-DW = format: functional, cell-based, Homo sapiens; settings: Homo sapiens, SK-PN-DW;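 also: growth inhibition measured with a viability assay on these cells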
Description: SANGER: Inhibition of human SK-PN-DW cell growth in a cell viability assay.

8-MG-BA = format: functional, cell-based, Homo sapiens; settings: Homo sapiens, 8-MG-BA;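 also: growth inhibition of 8-MG-BA cells, read out with a cell viability assay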
Description: SANGER: Inhibition of human 8-MG-BA cell growth in a cell viability assay.

A704 = format: functional, cell-based, Homo sapiens; settings: Homo sapiens, A704;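 also: growth inhibition of human A704 cells, read out with a cell viability assay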
Description: SANGER: Inhibition of human A704 cell growth in a cell viability assay.

BB49-HNC = format: functional, cell-based, Homo sapiens; settings: Homo sapiens, BB49-HNC;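 also: cell viability assay read-out, reported as inhibition of BB49-HNC cell growth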
Description: SANGER: Inhibition of human BB49-HNC cell growth in a cell viability assay.

BB65-RCC = format: functional, cell-based, Homo sapiens; settings: Homo sapiens, BB65-RCC;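 also: growth inhibition of the cell line, measured with a cell viability assay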
Description: SANGER: Inhibition of human BB65-RCC cell growth in a cell viability assay.

BE-13 = format: functional, cell-based, Homo sapiens; settings: Homo sapiens, BE-13;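 also: growth inhibition of human BE-13 cells, measured with a cell viability assay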
Description: SANGER: Inhibition of human BE-13 cell growth in a cell viability assay.

BT-474 = format: functional, cell-based, Homo sapiens; settings: Homo sapiens, BT-474
Description: SANGER: Inhibition of human BT-474 cell growth in a cell viability assay.

C2BBe1 = format: functional, cell-based, Homo sapiens; settings: Homo sapiens, C2BBe1;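 also: growth inhibition of C2BBe1 cells, read out through a viability assay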
Description: SANGER: Inhibition of human C2BBe1 cell growth in a cell viability assay.

TE-12 = format: functional, cell-based, Homo sapiens; settings: Homo sapiens, TE-12;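 also: growth inhibition of TE-12 cells, read out by a cell viability assay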
Description: SANGER: Inhibition of human TE-12 cell growth in a cell viability assay.

TE-5 = format: functional, cell-based, Homo sapiens; settings: Homo sapiens, TE-5;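 also: inhibition of cell growth, read out by a cell viability assay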
Description: SANGER: Inhibition of human TE-5 cell growth in a cell viability assay.

U-87 MG = format: functional, cell-based, Homo sapiens, U-87MG ATCC; settings: Homo sapiens, U-87 MG;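 also: growth inhibition of the cells measured with a viability assay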
Description: SANGER: Inhibition of human U-87-MG cell growth in a cell viability assay.

VA-ES-BJ = format: functional, cell-based, Homo sapiens; settings: Homo sapiens, VA-ES-BJ;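 also: growth inhibition of the VA-ES-BJ cell line, read out by a cell viability assay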
Description: SANGER: Inhibition of human VA-ES-BJ cell growth in a cell viability assay.

no-10 = format: functional, cell-based, Homo sapiens; settings: Homo sapiens;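 also: growth inhibition of no-10 cells, read out with a cell viability assay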
Description: SANGER: Inhibition of human no-10 cell growth in a cell viability assay.

COc1cc2c(Nc3ccc(NC(=O)c4ccccc4)cc3)ncnc2cc1OCCCN1CCOCC1
IC50 (COLO-824): > 4 µM
IC50 (COR-L88): > 4 µM
IC50 (CTB-1): 1.67 µM
IC50 (D-392MG): > 4 µM
IC50 (DMS-114): > 4 µM
IC50 (EW-11): > 4 µM
IC50 (HCC2157): > 4 µM
IC50 (IST-MES1): > 4 µM
IC50 (KARPAS-299): > 4 µM
IC50 (KARPAS-45): 0.381 µM
IC50 (LAMA-84): 1.76 µM
IC50 (MEG-01): > 4 µM
IC50 (MHH-NB-11): > 4 µM
IC50 (MN-60): > 4 µM
IC50 (MPP-89): > 4 µM
IC50 (MSTO-211H): > 4 µM
IC50 (MZ1-PC): > 4 µM
IC50 (NCI-H1355): > 4 µM
IC50 (NCI-H1395): > 4 µM
IC50 (NCI-H2126): > 4 µM
IC50 (NCI-H747): 2.03 µM
IC50 (NCI-N87): > 4 µM
IC50 (NH-12): 3.28 µM
IC50 (NOMO-1): 1.37 µM
IC50 (OS-RC-2): > 4 µM
IC50 (P30-OHK): > 4 µM
IC50 (QIMR-WIL): 2.06 µM
IC50 (RS4-11): 0.554 µM
IC50 (SBC-1): 1.04 µM
IC50 (SK-MEL-1): > 4 µM
IC50 (SK-N-FI): > 4 µM
IC50 (SK-PN-DW): > 4 µM
IC50 (8-MG-BA): > 4 µM
IC50 (A704): > 4 µM
IC50 (BB49-HNC): > 4 µM
IC50 (BB65-RCC): > 4 µM
IC50 (BE-13): 0.844 µM
IC50 (BT-474): > 4 µM
IC50 (C2BBe1): > 4 µM
IC50 (TE-12): > 4 µM
IC50 (TE-5): > 4 µM
IC50 (U-87 MG): > 4 µM
IC50 (VA-ES-BJ): 2.79 µM
IC50 (no-10): > 4 µM

CC1(C)CNc2cc(NC(=O)c3cccnc3NCc3ccncc3)ccc21 [MOTESANIB]
IC50 (COLO-824): > 2 µM
IC50 (COR-L88): > 2 µM
IC50 (CTB-1): > 2 µM
IC50 (D-392MG): > 2 µM
IC50 (DMS-114): > 2 µM
IC50 (EW-11): > 2 µM
IC50 (HCC2157): > 2 µM
IC50 (IST-MES1): > 2 µM
IC50 (KARPAS-299): > 2 µM
IC50 (KARPAS-45): > 2 µM
IC50 (LAMA-84): > 2 µM
IC50 (MEG-01): > 2 µM
IC50 (MHH-NB-11): > 2 µM
IC50 (MN-60): > 2 µM
IC50 (MPP-89): > 2 µM
IC50 (MSTO-211H): > 2 µM
IC50 (MZ1-PC): > 2 µM
IC50 (NCI-H1355): > 2 µM
IC50 (NCI-H1395): > 2 µM
IC50 (NCI-H2126): > 2 µM
IC50 (NCI-H747): > 2 µM
IC50 (NCI-N87): > 2 µM
IC50 (NH-12): > 2 µM
IC50 (NOMO-1): > 2 µM
IC50 (OS-RC-2): > 2 µM
IC50 (P30-OHK): > 2 µM
IC50 (QIMR-WIL): > 2 µM
IC50 (RS4-11): > 2 µM
IC50 (SBC-1): > 2 µM
IC50 (SK-MEL-1): > 2 µM
IC50 (SK-N-FI): > 2 µM
IC50 (SK-PN-DW): > 2 µM
IC50 (8-MG-BA): > 2 µM
IC50 (A704): > 2 µM
IC50 (BB49-HNC): > 2 µM
IC50 (BB65-RCC): > 2 µM
IC50 (BE-13): > 2 µM
IC50 (BT-474): > 2 µM
IC50 (C2BBe1): > 2 µM
IC50 (TE-12): > 2 µM
IC50 (TE-5): > 2 µM
IC50 (U-87 MG): > 2 µM
IC50 (VA-ES-BJ): > 2 µM
IC50 (no-10): > 2 µM

CCN(CC)CCCCNc1ncc2cc(-c3cc(OC)cc(OC)c3)c(NC(=O)NC(C)(C)C)nc2n1 [PD-173074]
IC50 (COLO-824): > 2 µM
IC50 (COR-L88): > 2 µM
IC50 (CTB-1): > 2 µM
IC50 (D-392MG): > 2 µM
IC50 (DMS-114): 1.37 µM
IC50 (EW-11): > 2 µM
IC50 (HCC2157): > 2 µM
IC50 (IST-MES1): > 2 µM
IC50 (KARPAS-299): > 2 µM
IC50 (KARPAS-45): > 2 µM
IC50 (LAMA-84): > 2 µM
IC50 (MEG-01): > 2 µM
IC50 (MHH-NB-11): > 2 µM
IC50 (MN-60): > 2 µM
IC50 (MPP-89): > 2 µM
IC50 (MSTO-211H): 1.47 µM
IC50 (MZ1-PC): > 2 µM
IC50 (NCI-H1355): > 2 µM
IC50 (NCI-H1395): > 2 µM
IC50 (NCI-H2126): > 2 µM
IC50 (NCI-H747): > 2 µM
IC50 (NCI-N87): > 2 µM
IC50 (NH-12): > 2 µM
IC50 (NOMO-1): > 2 µM
IC50 (OS-RC-2): > 2 µM
IC50 (P30-OHK): > 2 µM
IC50 (QIMR-WIL): > 2 µM
IC50 (RS4-11): 1.34 µM
IC50 (SBC-1): > 2 µM
IC50 (SK-MEL-1): > 2 µM
IC50 (SK-N-FI): > 2 µM
IC50 (SK-PN-DW): > 2 µM
IC50 (8-MG-BA): > 2 µM
IC50 (A704): > 2 µM
IC50 (BB49-HNC): > 2 µM
IC50 (BB65-RCC): > 2 µM
IC50 (BE-13): > 2 µM
IC50 (BT-474): > 2 µM
IC50 (C2BBe1): > 2 µM
IC50 (TE-12): > 2 µM
IC50 (TE-5): > 2 µM
IC50 (U-87 MG): > 2 µM
IC50 (VA-ES-BJ): > 2 µM
IC50 (no-10): > 2 µM
